The test system of this test is Hartley-type male guinea pigs. Briefly: Guinea Pig Homogeneous Skin Passive Anaphylaxis Assay (PCA reaction). The format is in vivo, guinea pig (Hartley-type). The following applies: Cavia porcellus, 10 mg/kg oral, 48 h after sensitization, read-out: Allergic reaction inhibitory index (%). In short, it runs like this: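 Inhibition % is derived from Evans Blue leakage area (mm^2, product of spot diameters) read 30 min after i.v. OVA/dye challenge. Beforehand, male Hartley guinea pigs (250~300 g) were passively sensitized intradermally with 120-fold-diluted anti-OVA serum and, after 48 h, received test compound 10 mg/kg p.o.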
Regarding `CCCCCCCCCCOc1cccc2oc(=O)c(OC/C=C(\C)CCC=C(C)C)c(OC(C)=O)c12` [Compound 239, 3-(geranyloxy)-4-(acetoxy)-5-(decyloxy)-2H-1-benzopyran-2-one], the inhibition in vivo at 10 mg/kg was 31%.
As for `CCCCCCCCCCOc1c(OC(=O)c2ccccc2)c2c(O)cccc2oc1=O` [Compound 186, 3-(decyloxy)-4-(benzoyloxy)-5-hydroxy-2H-1-benzopyran-2-one], the figure is 32%.
Then `CCCCCCCCCCOc1ccc2oc(=O)c(OC(C)=O)c(O)c2c1` [Compound 279, 3-(acetoxy)-4-(hydroxy)-6-(decyloxy)-2H-1-benzopyran-2-one], with 30%; and `CCCCOc1cccc2c(O)c(O)c(=O)oc12` [Compound 128, 3,4-(dihydroxy)-8-(butyloxy)-2H-1-benzopyran-2-one], with 40%.
Regarding `CCCCCCCCCCOc1cccc2c(OC/C=C(\C)CCC=C(C)C)c(O)c(=O)oc12` [Compound 152, 3-hydroxy-4-(geranyloxy)-8-(decyloxy)-2H-1-benzopyran-2-one], the inhibition in vivo at 10 mg/kg came to 31%.
Regarding `COc1c(OC/C=C(\C)CCC=C(C)C)c2cccc(OC(C)C)c2oc1=O` [Compound 141, 3-(methoxy)-4-(geranyloxy)-8-(isopropoxy)-2H-1-benzopyran-2-one], the inhibition in vivo at 10 mg/kg was found to be 32%.
Consider `COc1c(OC(C)=O)c(=O)oc2cc(OC(C)C)ccc12` [Compound 51, 3-(acetoxy)-4-(methoxy)-7-(isopropoxy)-2H-1-benzopyran-2-one], for which the inhibition in vivo at 10 mg/kg was 30%.
Then `CC(=O)Oc1c(OC(C)C)c2c(O)cccc2oc1=O` [Compound 185, 3-(acetoxy)-4-(isopropoxy)-5-hydroxy-2H-1-benzopyran-2-one], with 30%; and `O=c1oc2c(O)cccc2c(O)c1O` [Compound 93, 3,4,8-trihydroxy-2H-1-benzopyran-2-one], with 42%.
Then `CCCCCCCCCCOc1c(O)c(=O)oc2cccc(OC)c12` [Compound 199, 3-hydroxy-4-(decyloxy)-5-(methoxy)-2H-1-benzopyran-2-one], with 32%; and `CCCCCCCCCCOc1ccc2c(OC/C=C(\C)CCC=C(C)C)c(OC(C)C)c(=O)oc2c1` [Compound 72, 3-(isopropoxy)-4-(geranyloxy)-7-(decyloxy)-2H-1-benzopyran-2-one], with 34%.
`COc1ccc2c(O)c(OC(=O)c3ccccc3)c(=O)oc2c1` [Compound 27, 3-(benzoyloxy)-4-hydroxy-7-(methoxy)-2H-1-benzopyran-2-one]: the inhibition in vivo at 10 mg/kg stood at 40%.
Then `COc1cccc2c(OC(=O)c3ccccc3)c(OC(C)C)c(=O)oc12` [Compound 119, 3-(isopropoxy)-4-(benzoyloxy)-8-(methoxy)-2H-1-benzopyran-2-one], with 30%; and `CC(C)Oc1cccc2oc(=O)c(OC(=O)c3ccccc3)c(O)c12` [Compound 210, 3-(benzoyloxy)-4-hydroxy-5-(isopropoxy)-2H-1-benzopyran-2-one], with 40%.
As for `COc1c(OC/C=C(\C)CCC=C(C)C)c2c(OC(C)C)cccc2oc1=O` [Compound 222, 3-(methoxy)-4-(geranyloxy)-5-(isopropoxy)-2H-1-benzopyran-2-one], the figure is 32%; as for `CCCCCCCCCCOc1cccc2c(OC/C=C(\C)CCC=C(C)C)c(OC(C)C)c(=O)oc12` [Compound 156, 3-(isopropoxy)-4-(geranyloxy)-8-(decyloxy)-2H-1-benzopyran-2-one], 32%; as for `CCCCCCCCCCOc1ccc2c(OC/C=C(\C)CCC=C(C)C)c(OC/C=C(\C)CCC=C(C)C)c(=O)oc2c1` [Compound 73, 3-4-(digeranyloxy)-7-(decyloxy)-2H-1-benzopyran-2-one], 30%.
As for `O=C(Oc1c(O)c2cccc(O)c2oc1=O)c1ccccc1` [Compound 92, 3-(benzoyloxy)-4,8-dihydroxy-2H-1-benzopyran-2-one], the figure is 33%.
In the case of `CCCCCCCCCCOc1c(O)c2cc(OC)ccc2oc1=O` [Compound 274], the inhibition in vivo at 10 mg/kg was determined as 35%.
`CC(C)Oc1cccc2c(O)c(OC(=O)c3ccccc3)c(=O)oc12` [Compound 129, 3-(benzoyloxy)-4-hydroxy-8-(isopropoxy)-2H-1-benzopyran-2-one]: the inhibition in vivo at 10 mg/kg came to 36%.
Then `CCCCCCCCCCOc1c(OC(C)C)c2cccc(OC/C=C(\C)CCC=C(C)C)c2oc1=O` [Compound 164, 3-(decyloxy)-4-(isopropoxy)-8-(geranyloxy)-2H-1-benzopyran-2-one], with 33%.
As for `COc1cccc2oc(=O)c(OC(C)=O)c(OC(=O)c3ccccc3)c12` [Compound 197, 3-(acetoxy)-4-(benzoyloxy)-5-(methoxy)-2H-1-benzopyran-2-one], the figure is 32%; as for `CCCCCCCCCCOc1ccc2c(OC(C)=O)c(OC(C)=O)c(=O)oc2c1` [Compound 61, 3,4-(diacetoxy)-7-(decyloxy)-2H-1-benzopyran-2-one], 30%.
Then `CC(=O)Oc1c(OC/C=C(\C)CCC=C(C)C)c(=O)oc2cc(O)ccc12` [Compound 21, 3-(geranyloxy)-4-(acetoxy)-7-hydroxy-2H-1-benzopyran-2-one], with 33%; and `CCCCOc1cccc2oc(=O)c(OC(=O)c3ccccc3)c(OC)c12` [Compound 228, 3-(benzoyloxy)-4-(methoxy)-5-(butoxy)-2H-1-benzopyran-2-one], with 34%; and `CC(C)=CCC/C(C)=C/COc1cccc2oc(=O)c(O)c(OC(C)C)c12` [Compound 249, 3-hydroxy-4-(isopropoxy)-5-(geranyloxy)-2H-1-benzopyran-2-one], with 32%.
With `CC(C)=CCC/C(C)=C/COc1c(O)c(=O)oc2cc(O)ccc12` [Compound 20, 3,7-(dihydroxy)-4-(geranyloxy)-2H-1-benzopyran-2-one], the inhibition in vivo at 10 mg/kg was 30%.
Turning to `CC(C)=CCC/C(C)=C/COc1c(OC/C=C(\C)CCC=C(C)C)c2ccc(OC(C)C)cc2oc1=O` [Compound 57, 3,4-(digeranyloxy)-7-(isopropoxy)-2H-1-benzopyran-2-one], the inhibition in vivo at 10 mg/kg was 30%.
Then `CC(C)=CCC/C(C)=C/COc1cccc2oc(=O)c(O)c(OC/C=C(\C)CCC=C(C)C)c12` [Compound 254, 3-hydroxy-4,5-(digeranyloxy)-2H-1-benzopyran-2-one], with 30%; and `CC(C)=CCC/C(C)=C/COc1c(O)c2cccc(OC/C=C(\C)CCC=C(C)C)c2oc1=O` [Compound 167, 3,8-(digeranyloxy)-4-hydroxy-2H-1-benzopyran-2-one], with 30%.
Consider `CCCCCCCCCCOc1cccc2c(OC(C)C)c(OC(C)=O)c(=O)oc12` [Compound 149, 3-(acetoxy)-4-(isopropoxy)-8-(decyloxy)-2H-1-benzopyran-2-one], for which the inhibition in vivo at 10 mg/kg was 33%.
Then `COc1c(O)c(=O)oc2ccc(O)cc12` [Compound 267, 3,6-(dihydroxy)-4-(methoxy-2H-1-benzopyran-2-one], with 34%; and `CCCCCCCCCCOc1cccc2oc(=O)c(OC(C)=O)c(OC(=O)c3ccccc3)c12` [Compound 232, 3-(acetoxy)-4-(benzoyloxy)-5-(decyloxy)-2H-1-benzopyran-2-one], with 32%; and `CC(C)Oc1ccc2c(OC(=O)c3ccccc3)c(OC(=O)c3ccccc3)c(=O)oc2c1` [Compound 47, 3,4-(dibenzoyloxy)-7-(isopropoxy)-2H-1-benzopyran-2-one], with 31%.
In the case of `COc1c(OC(C)C)c2c(OC)cccc2oc1=O` [Compound 200, 3,5-(dimethoxy)-4-(isopropoxy)-2H-1-benzopyran-2-one], the inhibition in vivo at 10 mg/kg was 30%.
As for `COc1c(OC/C=C(\C)CCC=C(C)C)c(=O)oc2cccc(O)c12` [Compound 191, 3-(geranyloxy)-4-(methoxy)-5-hydroxy-2H-1-benzopyran-2-one], the figure is 30%; as for `COc1cccc2c(OC(=O)c3ccccc3)c(OC/C=C(\C)CCC=C(C)C)c(=O)oc12` [Compound 122, 3-(geranyloxy)-4-(benzoyloxy)-8-(methoxy)-2H-1-benzopyran-2-one], 30%.
Then `CCCCCCCCCCOc1cccc2oc(=O)c(OC(C)C)c(OC/C=C(\C)CCC=C(C)C)c12` [Compound 242, 3-(isopropoxy)-4-(geranyloxy)-5-(decyloxy)-2H-1-benzopyran-2-one], with 30%.
Then `COc1ccc2oc(=O)c(O)c(O)c2c1` [Compound 272, 3,4-(dihydroxy)-6-(methoxy)-2H-1-benzopyran-2-one], with 30%.
Take `CCCCCCCCCCOc1cccc2c(OC(=O)c3ccccc3)c(OC(C)=O)c(=O)oc12` [Compound 146, 3-(acetoxy)-4-(benzoyloxy)-8-(decyloxy)-2H-1-benzopyran-2-one]: the inhibition in vivo at 10 mg/kg amounted to 30%.
Then `CC(C)Oc1c(O)c2c(O)cccc2oc1=O` [Compound 182, 3-(isopropoxy)-4,5-(dihydroxy)-2H-1-benzopyran-2-one], with 31%; and `CC(C)=CCC/C(C)=C/COc1cccc2oc(=O)c(OC(C)C)c(OC/C=C(\C)CCC=C(C)C)c12` [Compound 258, 3-(isopropoxy)-4,5-(digeranyloxy)-2H-1-benzopyran-2-one], with 32%; and `CCCCCCCCCCOc1ccc2c(O)c(OC(=O)c3ccccc3)c(=O)oc2c1` [Compound 58, 3-(benzoyloxy)-4-hydroxy-7-(decyloxy)-2H-1-benzopyran-2-one], with 38%.
As for `CCCCCCCCCCOc1ccc2c(O)c(OC)c(=O)oc2c1` [Compound 62, 3-(methoxy)-4-hydroxy-7-(decyloxy)-2H-1-benzopyran-2-one], the figure is 43%.

Values taken from US5428059A, “Benzopyran derivatives and an anti-allergic agent possessing the same as the active ingredient” (Dainippon Ink & Chemicals, Inc., priority 1991, dated 1995).
